In ChEMBL document CHEMBL1128802, “Hydroxy-anthraquinones as antimalarial agents” (Bioorg Med Chem Lett, 1995) one finds Average colony count and IC50 data, which are given here for 13 molecules.

pIC50: −log10 of the molar value.

Experiment [1] has as its system CFU-GM. Description: In vitro toxicity against human bone marrow stem cells(CFU-GM) at a dose of 0.1 uM; activity expressed as average colony count. The format is functional.
Experiment [2] has as its system CFU-GM. Description: In vitro toxicity against human bone marrow stem cells(CFU-GM) at a dose of 100.0 uM; activity expressed as average colony count. The format is functional.
For experiment [3], the system named is CFU-GM. Nature of the experiment: In vitro toxicity against human bone marrow stem cells(CFU-GM) at a dose of 1.0 uM; activity expressed as average colony count. The format is functional.
Experiment [4] has as its system CFU-GM. Description: In vitro toxicity against human bone marrow stem cells(CFU-GM) in the absence (control); activity expressed as average colony count. The format is functional.
Experiment [5] concerns CFU-GM. Description: In vitro toxicity against human bone marrow stem cells(CFU-GM) at a dose of 10.0 uM; activity expressed as average colony count. The format is functional.
Experiment [6] relates to CFU-GM. Description: In vitro toxicity against human bone marrow stem cells(CFU-GM) at a dose of 5.0 uM; activity expressed as average colony count. The format is functional.
For the next experiment, the system named is Plasmodium falciparum. Description: In vitro inhibitory activity against Plasmodium falciparum D6. The format is functional, organism-based.
Experiment [7] concerns CFU-GM. Description: In vitro toxicity against human bone marrow stem cells (CFU-GM) in the absence (control); activity expressed as average colony count. The format is functional, Bone element.

Regarding `CCN(CC)CCCC(C)Nc1ccnc2cc(Cl)ccc12` (centres undefined) [CHLOROQUINE], the Average colony count turned out to be 56 in the experiment on CFU-GM [1]; 5 with CFU-GM [2]; 54 in the experiment with CFU-GM [3]; 56 in the experiment with CFU-GM [4]; 48 in the experiment on CFU-GM [5]; 54 in the experiment with CFU-GM [6].
As for `O=C1c2cccc(O)c2C(=O)c2cccc(O)c21` [ANTHRARUFIN], the pIC50 in the experiment on Plasmodium falciparum was less than 6.00.
Same read-out and setting: next, `COc1c(Br)c2c(c(OC)c1OC)C(=O)c1c(Br)c(OC)c(OC)c(OC)c1C2=O`: no more than 5.30.
With `O=C1c2cc(O)c(O)c(O)c2C(=O)c2cc(O)c(O)c(O)c21`, the Average colony count was determined as 56 with CFU-GM [7]; 61 with CFU-GM [1]; 5 in the experiment with CFU-GM [2]; 57 in the experiment with CFU-GM [3]; 36 in the experiment on CFU-GM [5]; 47 with CFU-GM [6]. This molecule also had a pIC50 in the experiment with Plasmodium falciparum of 7.46.
In the experiment on Plasmodium falciparum, `COc1c(OC)c(OC)c2c(c1OC)C(=O)c1c(OC)c(OC)c(OC)c(OC)c1C2=O` gave a pIC50 of no more than 5.30.
Turning to `COc1cc2c(c(OC)c1OC)C(=O)c1cc(OC)c(OC)c(OC)c1C2=O`, in the experiment with Plasmodium falciparum, the pIC50 was no more than 5.30.
Same read-out and setting: next, `O=C1c2c(O)c(O)c(O)c(Br)c2C(=O)c2c(O)c(O)c(O)c(Br)c21`: 5.30.
Consider `O=C1c2ccc(O)cc2C(=O)c2ccc(O)cc21` [ANTHRAFLAVICACID], for which the pIC50 with Plasmodium falciparum was less than 6.00.
`O=C1c2c(O)c(O)c(O)c(O)c2C(=O)c2c(O)c(O)c(O)c(O)c21` gave a pIC50 in the experiment on Plasmodium falciparum of 6.10.
Same read-out and setting: the result for `O=C1c2ccccc2C(=O)c2c(O)c(O)cc(O)c21` [PURPURIN] reads less than 6.00; that for `COc1cc2c(cc1OC)C(=O)c1cc(OC)c(OC)cc1C2=O`, no more than 5.30; that for `O=C1c2cc(O)c(O)cc2C(=O)c2cc(O)c(O)cc21`, 6.52.
Same read-out and setting: next, `O=C1c2ccccc2C(=O)c2ccccc21` [ANTHRAQUINONE]: 5.30.
